Laboratory results published in US8410112B2, “Compounds useful as inhibitors of ATR kinase” (Vertex Pharmaceuticals Incorporated, priority 2008, dated 2013).
pKi: −log10 of the molar value.

Molecular target: T1, full-length ATR (Homo sapiens, UniProt Q13535)
T1 construct: in the presence of 5 nM full-length ATR
Test: ATR Inhibition Assay (radioactive-phosphate incorporation)
Type: biochemical
Conditions: Ki(app); 5 nM full-length ATR, 10 μM ATP, 800 μM target peptide, 25° C.
Method in brief: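 Buffer was 50 mM Tris/HCl pH 7.5, 10 mM MgCl2, 1 mM DTT, with 5 nM enzyme, 10 μM [γ-33P]ATP and 800 μM target peptide at 25 °C. Compound was pre-incubated 10 min before ATP start, and the reaction was stopped after 24 h. Phosphocellulose filter capture; Ki(app) came from non-linear regression of background-corrected initial rates.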

T1 sequence (Q13535 whole entry): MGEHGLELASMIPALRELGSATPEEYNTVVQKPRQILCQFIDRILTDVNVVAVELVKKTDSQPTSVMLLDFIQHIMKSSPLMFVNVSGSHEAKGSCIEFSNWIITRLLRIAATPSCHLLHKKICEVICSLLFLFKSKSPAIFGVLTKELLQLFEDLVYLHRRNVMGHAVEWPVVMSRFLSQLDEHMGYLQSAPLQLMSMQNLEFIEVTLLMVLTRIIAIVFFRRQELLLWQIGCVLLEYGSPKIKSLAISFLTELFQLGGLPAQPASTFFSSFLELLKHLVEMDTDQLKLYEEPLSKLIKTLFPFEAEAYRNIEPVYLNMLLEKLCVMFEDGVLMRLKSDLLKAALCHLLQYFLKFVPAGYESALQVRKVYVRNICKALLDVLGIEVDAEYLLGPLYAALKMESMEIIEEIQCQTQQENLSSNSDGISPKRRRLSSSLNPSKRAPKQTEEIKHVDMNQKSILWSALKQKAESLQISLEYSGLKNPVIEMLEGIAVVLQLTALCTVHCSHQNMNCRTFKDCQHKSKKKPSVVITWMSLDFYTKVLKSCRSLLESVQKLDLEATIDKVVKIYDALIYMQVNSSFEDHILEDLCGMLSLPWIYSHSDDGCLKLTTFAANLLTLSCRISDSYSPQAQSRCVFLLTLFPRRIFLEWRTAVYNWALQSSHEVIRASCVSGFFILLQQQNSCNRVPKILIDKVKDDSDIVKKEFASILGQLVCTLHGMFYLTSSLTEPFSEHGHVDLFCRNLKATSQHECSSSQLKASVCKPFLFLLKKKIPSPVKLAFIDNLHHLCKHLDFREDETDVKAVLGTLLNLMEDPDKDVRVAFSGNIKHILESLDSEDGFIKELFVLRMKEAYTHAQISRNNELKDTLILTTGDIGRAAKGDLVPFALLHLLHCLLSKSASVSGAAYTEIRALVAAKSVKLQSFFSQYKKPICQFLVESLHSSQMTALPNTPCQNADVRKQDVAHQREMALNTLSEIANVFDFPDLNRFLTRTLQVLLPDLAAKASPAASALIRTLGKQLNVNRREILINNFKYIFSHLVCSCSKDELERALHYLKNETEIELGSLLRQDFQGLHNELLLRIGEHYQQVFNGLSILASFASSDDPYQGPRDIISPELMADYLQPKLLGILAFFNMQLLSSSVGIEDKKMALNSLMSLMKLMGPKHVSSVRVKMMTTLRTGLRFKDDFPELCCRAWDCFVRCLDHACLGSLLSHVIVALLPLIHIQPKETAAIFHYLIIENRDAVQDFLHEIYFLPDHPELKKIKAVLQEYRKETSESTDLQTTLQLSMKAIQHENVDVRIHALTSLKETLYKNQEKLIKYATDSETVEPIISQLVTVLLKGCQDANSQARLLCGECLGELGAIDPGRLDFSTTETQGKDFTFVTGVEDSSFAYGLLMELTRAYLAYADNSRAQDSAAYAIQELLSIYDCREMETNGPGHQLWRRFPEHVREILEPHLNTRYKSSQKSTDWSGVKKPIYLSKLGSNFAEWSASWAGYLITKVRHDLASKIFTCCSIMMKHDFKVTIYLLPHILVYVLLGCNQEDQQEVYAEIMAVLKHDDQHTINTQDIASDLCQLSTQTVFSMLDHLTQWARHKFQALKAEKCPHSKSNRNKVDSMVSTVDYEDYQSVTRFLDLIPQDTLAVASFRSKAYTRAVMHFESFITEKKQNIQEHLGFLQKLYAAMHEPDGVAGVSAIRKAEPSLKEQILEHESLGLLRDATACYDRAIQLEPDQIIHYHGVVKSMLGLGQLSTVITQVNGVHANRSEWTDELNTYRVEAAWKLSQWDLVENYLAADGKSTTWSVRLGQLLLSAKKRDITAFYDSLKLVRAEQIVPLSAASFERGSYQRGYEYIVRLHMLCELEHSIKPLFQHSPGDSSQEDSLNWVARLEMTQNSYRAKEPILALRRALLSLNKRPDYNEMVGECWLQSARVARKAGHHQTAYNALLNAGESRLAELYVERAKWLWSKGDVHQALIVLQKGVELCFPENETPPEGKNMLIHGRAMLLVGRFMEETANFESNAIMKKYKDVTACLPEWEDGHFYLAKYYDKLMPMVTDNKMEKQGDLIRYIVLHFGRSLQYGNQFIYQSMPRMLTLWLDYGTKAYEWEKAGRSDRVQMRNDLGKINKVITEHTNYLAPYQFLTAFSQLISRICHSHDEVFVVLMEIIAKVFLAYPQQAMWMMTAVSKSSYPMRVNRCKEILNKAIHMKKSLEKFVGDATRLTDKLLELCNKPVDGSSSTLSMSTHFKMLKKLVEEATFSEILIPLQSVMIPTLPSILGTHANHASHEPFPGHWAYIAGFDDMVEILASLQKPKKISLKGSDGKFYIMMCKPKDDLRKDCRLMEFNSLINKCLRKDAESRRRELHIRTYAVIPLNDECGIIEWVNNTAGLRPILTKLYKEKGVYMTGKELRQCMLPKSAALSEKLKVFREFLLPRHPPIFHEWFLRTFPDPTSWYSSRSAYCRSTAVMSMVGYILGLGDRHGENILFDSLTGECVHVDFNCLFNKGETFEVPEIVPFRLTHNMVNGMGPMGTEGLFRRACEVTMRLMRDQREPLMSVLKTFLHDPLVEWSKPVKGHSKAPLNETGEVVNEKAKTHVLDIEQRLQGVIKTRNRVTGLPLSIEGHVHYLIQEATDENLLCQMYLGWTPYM

Compound | pKi
Nc1ncc(C2=CCN(c3ccccc3)CC2)nc1-c1nc2ccccc2[nH]1 [Compound I-159, 3-(1H-benzo[d]imidazol-2-yl)-5-(1-phenyl-1,2,3,6-tetrahydropyridin-4-yl)pyrazin-2-amine] | 6.00 to 7.00
CN1CCN(C(=O)N2CC=C(c3cnc(N)c(-c4nc5ccccc5[nH]4)n3)CC2)CC1 [Compound I-161, (4-(5-amino-6-(1H-benzo[d]imidazol-2-yl)pyrazin-2-yl)-5,6-dihydropyridin-1(2H)-yl)(4-methylpiperazin-1-yl)methanone] | 6.00 to 7.00
CC(C)(C)OC(=O)N1CC=C(c2cnc(N)c(-c3noc(-c4ccccc4)n3)n2)CC1 [Compound I-163, Tert-butyl 4-(5-amino-6-(5-phenyl-1,2,4-oxadiazol-3-yl)pyrazin-2-yl)-5,6-dihydropyridine-1(2H)-carboxylate] | 6.00 to 7.00
Nc1ncc(C2=CCN(c3nccs3)CC2)nc1-c1nc2ccccc2[nH]1 [Compound I-164, 3-(1H-benzo[d]imidazol-2-yl)-5-(1-(thiazol-2-yl)-1,2,3,6-tetrahydropyridin-4-yl)pyrazin-2-amine] | > 7.00
CCS(=O)(=O)N1CC=C(c2cnc(N)c(C(=O)Nc3cccnc3OC)n2)CC1 [Compound I-165, 3-amino-6-(1-(ethylsulfonyl)-1,2,3,6-tetrahydropyridin-4-yl)-N-(2-methoxypyridin-3-yl)pyrazine-2-carboxamide] | > 7.00
CCS(=O)(=O)N1CC=C(c2cnc(N)c(C(=O)Nc3ccnc(C)c3)n2)CC1 [Compound I-166, 3-amino-6-(1-(ethylsulfonyl)-1,2,3,6-tetrahydropyridin-4-yl)-N-(2-methylpyridin-4-yl)pyrazine-2-carboxamide] | 6.00 to 7.00
CCS(=O)(=O)N1CC=C(c2cnc(N)c(C(=O)Nc3cc(C)ccn3)n2)CC1 [Compound I-167, 3-amino-6-(1-(ethylsulfonyl)-1,2,3,6-tetrahydropyridin-4-yl)-N-(4-methylpyridin-2-yl)pyrazine-2-carboxamide] | > 7.00
CCS(=O)(=O)N1CC=C(c2cnc(N)c(C(=O)Nc3cc(C)nn3C)n2)CC1 [Compound I-168, 3-amino-N-(1,3-dimethyl-1H-pyrazol-5-yl)-6-(1-(ethylsulfonyl)-1,2,3,6-tetrahydropyridin-4-yl)pyrazine-2-carboxamide] | 6.00 to 7.00
CCS(=O)(=O)N1CC=C(c2cnc(N)c(C(=O)Nc3cnccn3)n2)CC1 [Compound I-170, 3-amino-6-(1-(ethylsulfonyl)-1,2,3,6-tetrahydropyridin-4-yl)-N-(pyrazin-2-yl)pyrazine-2-carboxamide] | 6.00 to 7.00
CCS(=O)(=O)N1CC=C(c2cnc(N)c(C(=O)Nc3ccccn3)n2)CC1 [Compound I-171, 3-amino-6-(1-(ethylsulfonyl)-1,2,3,6-tetrahydropyridin-4-yl)-N-(pyridin-2-yl)pyrazine-2-carboxamide] | 6.00 to 7.00
CCS(=O)(=O)N1CC=C(c2cnc(N)c(C(=O)Nc3nc4ccccc4[nH]3)n2)CC1 [Compound I-172, 3-amino-N-(1H-benzo[d]imidazol-2-yl)-6-(1-(ethylsulfonyl)-1,2,3,6-tetrahydropyridin-4-yl)pyrazine-2-carboxamide] | > 7.00
CN(C)C1CCN(C(=O)N2CC=C(c3cnc(N)c(-c4nc5ccccc5[nH]4)n3)CC2)CC1 [Compound I-173, (4-(5-amino-6-(1H-benzo[d]imidazol-2-yl)pyrazin-2-yl)-5,6-dihydropyridin-1(2H)-yl)(4-(dimethylamino)piperidin-1-yl)methanone] | 6.00 to 7.00
COCCOCC(=O)N[C@H]1CCN(c2cnc(N)c(-c3nc4ccccc4[nH]3)n2)C1 [Compound I-181, (S)-N-(1-(5-amino-6-(1H-benzo[d]imidazol-2-yl)pyrazin-2-yl)pyrrolidin-3-yl)-2-(2-methoxyethoxy)ethanamide] | 5.00 to 6.00
CN(C)CC(=O)N[C@H]1CCN(c2cnc(N)c(-c3nc4ccccc4[nH]3)n2)C1 [Compound I-184, (S)-N-(1-(5-amino-6-(1H-benzo[d]imidazol-2-yl)pyrazin-2-yl)pyrrolidin-3-yl)-2-(dimethylamino)ethanamide] | 5.00 to 6.00

Second part, the compound after the results:

pKi | Compound
6.00 to 7.00 | CCS(=O)(=O)N1CCN(c2cnc(N)c(-c3cn(-c4ccc(N)cc4)nn3)n2)CC1 [Compound I-160, 3-(1-(4-aminophenyl)-1H-1,2,3-triazol-4-yl)-5-(4-(ethylsulfonyl)piperazin-1-yl)pyrazin-2-amine]
6.00 to 7.00 | CCS(=O)(=O)N1CCN(c2cnc(N)c(-c3cc(-c4ccccc4)no3)n2)CC1 [Compound I-162, 5-(4-(ethylsulfonyl)piperazin-1-yl)-3-(3-phenylisoxazol-5-yl)pyrazin-2-amine]
> 7.00 | CCS(=O)(=O)N1CC=C(c2cnc(N)c(C(=O)Nc3n[nH]c4ccccc34)n2)CC1 [Compound I-169, 3-amino-6-(1-(ethylsulfonyl)-1,2,3,6-tetrahydropyridin-4-yl)-N-(1H-indazol-3-yl)pyrazine-2-carboxamide]
5.00 to 6.00 | Nc1ncc(N2CCN(C(=O)C3CCC3)CC2)nc1-c1nc2ccccc2[nH]1 [Compound I-174, (4-(5-amino-6-(1H-benzo[d]imidazol-2-yl)pyrazin-2-yl)piperazin-1-yl)(cyclobutyl)methanone]
5.00 to 6.00 | CCC(CC)C(=O)N1CCN(c2cnc(N)c(-c3nc4ccccc4[nH]3)n2)CC1 [Compound I-175, 1-(4-(5-amino-6-(1H-benzo[d]imidazol-2-yl)pyrazin-2-yl)piperazin-1-yl)-2-ethylbutan-1-one]
6.00 to 7.00 | Nc1ncc(N2CCN(C(=O)c3ccccn3)CC2)nc1-c1nc2ccccc2[nH]1 [Compound I-176, (4-(5-amino-6-(1H-benzo[d]imidazol-2-yl)pyrazin-2-yl)piperazin-1-yl)(pyridin-2-yl)methanone]
6.00 to 7.00 | Nc1ncc(N2CCN(C(=O)c3c(F)cccc3F)CC2)nc1-c1nc2ccccc2[nH]1 [Compound I-177, (4-(5-amino-6-(1H-benzo[d]imidazol-2-yl)pyrazin-2-yl)piperazin-1-yl)(2,6-difluorophenyl)methanone]
6.00 to 7.00 | COCCOCC(=O)N1CCN(c2cnc(N)c(-c3nnc(-c4ccccc4)o3)n2)CC1 [Compound I-178, 1-(4-(5-amino-6-(5-phenyl-1,3,4-oxadiazol-2-yl)pyrazin-2-yl)piperazin-1-yl)-2-(2-methoxyethoxy)ethanone]
6.00 to 7.00 | COCC(=O)N1CCN(c2cnc(N)c(-c3nnc(-c4ccccc4)o3)n2)CC1 [Compound I-179, 1-(4-(5-amino-6-(5-phenyl-1,3,4-oxadiazol-2-yl)pyrazin-2-yl)piperazin-1-yl)-2-methoxyethanone]
6.00 to 7.00 | CC(=O)N1CCN(c2cnc(N)c(-c3nnc(-c4ccccc4)o3)n2)CC1 [Compound I-180, 1-(4-(5-amino-6-(5-phenyl-1,3,4-oxadiazol-2-yl)pyrazin-2-yl)piperazin-1-yl)ethanone]
5.00 to 6.00 | COCC(=O)N[C@H]1CCN(c2cnc(N)c(-c3nc4ccccc4[nH]3)n2)C1 [Compound I-182, (S)-N-(1-(5-amino-6-(1H-benzo[d]imidazol-2-yl)pyrazin-2-yl)pyrrolidin-3-yl)-2-methoxyethanamide]
6.00 to 7.00 | Nc1ncc(N2CCN(C(=O)c3cccnc3)CC2)nc1-c1nnc(-c2ccccc2)o1 [Compound I-183, (4-(5-amino-6-(5-phenyl-1,3,4-oxadiazol-2-yl)pyrazin-2-yl)piperazin-1-yl)(pyridin-3-yl)methanone]
